# Assay: first-order primary biodegradation rate constant k (sorption-corrected, fDis-corrected) (d-1); higher = faster biodegradation
# How it was run: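 River water with sieved sediment (50 g wet solid L^–1) from German, Swiss, Spanish and Greek river segments was spiked with 129 compounds at 1 μg L^–1 each. It was shaken in the dark at river water temperature (20.5 ± 3.5 °C) for 10 days. Filtered water-phase subsamples were analysed by UHPLC-Orbitrap-MS/MS. First-order k came from log peak-area regression over three replicates, corrected for azide-sterilised sorption-control dissipation and divided by dissolved fraction; invalid fits excluded.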
# [1] = river segment: Greece (EL) A_Contam, incubation temperature 19 °C
# [2] = river segment: Greece (EL) G_Contam, incubation temperature 19 °C
# [3] = river segment: Greece (EL) L_Contam, incubation temperature 19 °C
# [4] = river segment: Spain (ES) L_Contam, incubation temperature 24 °C
# [5] = river segment: Germany (DE) T_Contam, incubation temperature 24 °C
first-order primary biodegradation rate constant k [3],first-order primary biodegradation rate constant k [5],"first-order primary biodegradation rate constant k (river segment: Greece (EL) G_Pris, incubation temperature 19 °C)","first-order primary biodegradation rate constant k (river segment: Spain (ES) C_Contam, incubation temperature 24 °C)",Structure (SMILES),first-order primary biodegradation rate constant k [1],first-order primary biodegradation rate constant k [2],"first-order primary biodegradation rate constant k (river segment: Spain (ES) B_Contam, incubation temperature 24 °C)",first-order primary biodegradation rate constant k [4],"first-order primary biodegradation rate constant k (river segment: Switzerland (CH) C_Contam, incubation temperature 17 °C)","first-order primary biodegradation rate constant k (river segment: Switzerland (CH) U_Contam, incubation temperature 17 °C)"
0.0519,0.0823,0.0465,,Nc1nnc(-c2cccc(Cl)c2Cl)c(N)n1 [Lamotrigine],,0.337,,,,
0.00883,0.0377,,0.00861,NC(=O)N1c2ccccc2C=Cc2ccccc21 [Carbamazepine],0.00808,,,0.711,,

Structure (SMILES),first-order primary biodegradation rate constant k [3],first-order primary biodegradation rate constant k [5],"first-order primary biodegradation rate constant k (river segment: Greece (EL) G_Pris, incubation temperature 19 °C)","first-order primary biodegradation rate constant k (river segment: Spain (ES) C_Contam, incubation temperature 24 °C)",first-order primary biodegradation rate constant k [1],first-order primary biodegradation rate constant k [2],"first-order primary biodegradation rate constant k (river segment: Spain (ES) B_Contam, incubation temperature 24 °C)",first-order primary biodegradation rate constant k [4],"first-order primary biodegradation rate constant k (river segment: Switzerland (CH) C_Contam, incubation temperature 17 °C)","first-order primary biodegradation rate constant k (river segment: Switzerland (CH) U_Contam, incubation temperature 17 °C)"
COc1ccc(C(CN(C)C)C2(O)CCCCC2)cc1 (stereo unspecified) [Venlafaxine],1.2,,,,1.22,0.204,0.0466,0.0394,0.00206,0.0953

# Source: the supplement of paper PMC11562712
